Data published in publication PMC10350924, “Design, Synthesis, and Pharmacological Characterization of a Potent Soluble Epoxide Hydrolase Inhibitor for the Treatment of Acute Pancreatitis” (Journal of Medicinal Chemistry, 2023).

How the values were obtained:
[1] = tested on: cerulein-induced acute pancreatitis; experiment: Cerulein-induced acute pancreatitis in mice; assay type: in vivo
Procedure: Male CD-1 mice (33–39 g, 8 weeks, Charles River Laboratories; Calco, Italy) were fed with standard rodent chow and water and acclimated for 4 days at a 12 h light and 12 h dark schedule in a constant air-conditioned environment (21 ± 2 °C). The mice were randomly assigned to groups, and experiments were carried out during the light phase. Experimental procedures were conducted in conformity with Italian (D.L. 26/2014) and European (directive 2010/63/EU) regulations on the protection of animals used for scientific purposes and approved by the Italian Ministry. Acute pancreatitis (AP) was induced in mice by intraperitoneal (i.p.) injections of cerulein (50 μg/kg) hourly (5 times).[56] The groups were: (a) Sham group which received saline i.p. hourly (×5); […] The mice were killed 6 h after the first cerulein injection. Blood samples were obtained by direct intracardiac puncture. Pancreases and lungs were removed immediately, frozen, and stored at −80 °C until assayed. Portions of these organs were also fixed in formaldehyde for histological and immunohistochemical examination. Pancreas and lung sections (6 μm) were stained for hematoxylin & eosin (H&E). Evaluation of pancreas edema and inflammation signs were performed with a three-point scoring system. […] Analysis was performed in a blinded manner. Evaluation of lung edema and inflammatory infiltration was performed with three-point scoring system: 0, absent; 1, mild; 2, moderate; 3, severe. […] Tissue sections were then incubated with normal goat serum (Vector Laboratories, Newark, California) for 20 min to reduce nonspecific antibody interactions. Sections were incubated with primary antibody diluted in 0.01 M PBS, 2.5% normal serum (anti-Neutrophils rat monoclonal antibody, dilution 1:100, Abcam) for 30 min. After rinsing with PBS 0.01 M for 5 min, slides were incubated with biotinylated goat anti-rat IgG (Vector Laboratories, Newark, California), diluted 1:200, for 30 min. After rinsing with PBS 0.01 M for 5 min, slides were incubated with VECTASTAIN ABC Reagent (Vector Laboratories, Newark, California) for 30 min. Color development was performed using […] 3,3′-diaminobenzidine solution (Sigma-Aldrich, Milan, Italy), and sections were analyzed using Leica Microsystem with a magnification of 20x. Semiquantitative determination of protein expression was obtained with ImageJ/Fiji software. Liver injury was assessed by measuring the rise in plasma levels of alanine aminotransferase (ALT, a specific marker for hepatic parenchymal injury) and aspartate aminotransferase (AST, a nonspecific marker for hepatic injury) 6 h after cerulein injection by a clinical laboratory. Results are expressed in international units per milliliter.

[2] = tested on: PGE2 production in LPS-stimulated J774 murine macrophages; experiment: PGE2 production in LPS-stimulated J774 macrophages; assay type: cell-based; conditions: Mus musculus; J774, 2 h pre-treatment 0.1–10 μM, LPS 10 μg/mL 24 h; read-out: IC50 for reduction of PGE2 levels
Procedure: Murine monocyte/macrophage J774 cell line was obtained from the American Type Culture Collection (ATTC TIB 67). The cell line was grown in adhesion in Dulbecco’s modified Eagle’s medium (DMEM) supplemented with glutamine (2 mM, Aurogene Rome, Italy), Hepes (25 mM, Aurogene Rome, Italy), penicillin (100 U/mL, Aurogene Rome, Italy), streptomycin (100 μg/mL, Aurogene Rome, Italy), fetal bovine serum (FBS, 10%, Aurogene Rome, Italy), and sodium pyruvate (1.2%, Aurogene Rome, Italy) (DMEM completed). The cells were plated at a density of 1 × 10^6 cells in 75 cm^2 culture flasks and maintained at 37 °C under 5% CO2 in a humidified incubator until 90% confluence. The culture medium was changed every 2 days. Before a confluent monolayer appeared, subculturing cell process was carried out. Cells (0.5 × 10^6 cells/mL) were pretreated for 2 h in the absence or presence of 28 (0.1–10 μM) and then stimulated, for 24 h, with lipopolysaccharide (LPS) from E. coli, Serotype 0111:B4, (10 μg/mL; 100 μL in DMEM completed with FBS, Sigma-Aldrich, Milan, Italy).[42] The supernatants were collected for the measurement of PGE2 levels by ELISA assay (Cayman Chemical, Vinci-Biochem, Vinci, Italy).

[3] = In vivo pharmacokinetic profile in mice after i.p. administration; conditions: mouse, plasma, ip, 10 mg/kg i.p., single dose
Procedure: For analysis of plasma levels of 28, mice (6 per group) received 10 mg/kg i.p. injection in a volume of 500 μL of DMSO 2% in saline. After selected time points, the mice were sacrificed (CO2 atmosphere) and blood (approximately 0.7–0.9 mL) was collected by intracardiac puncture using citrate as an anticoagulant. Then, plasma was obtained by centrifugation at 800g at 4 °C for 10 min and immediately frozen at −80 °C. The analyses were performed using a Shimadzu Nexera UHPLC (Kyoto, Japan) consisting of two LC-30AD pumps, a SIL-30AC autosampler, a CTO-20AC column oven, and a CBM-20A controller. Chromatographic conditions have previously been reported in the Chemical and Metabolic Stability section. The chromatographic system was coupled online to a triple quadrupole LCMS-8050 (Shimadzu) equipped with an electrospray ionization (ESI) source operating in positive mode. Quantification was performed in scheduled multiple reaction monitoring (MRM) mode. The transitions (Table S2) were m/z 456 > 149.2 (quantifier ion), 456 > 166.2 (qualifier ion) for compound 28, and m/z 458 > 149.2 (quantifier ion), 458 > 166.2 (qualifier ion) for IS. Dwell time, interface temperature, DL temperature, and heat block temperature were set to 100 ms, 300, 250, and 350 °C, respectively. Nebulizing gas, heating gas, and drying gas flow were set to 3, 10, and 10 L min^–1, respectively. All of the data was collected in the centroid mode and acquired and processed using Lab Solution workstation software. Stock solutions of 28 and IS were prepared in DMSO (1 mg mL^–1). The standards of 28 were prepared by dilution of the stock solution with methanol to obtain the working stock solutions in plasma of the following concentrations: 0.2, 0.5, 1, 5, 10, 20, and 50 ng mL^–1 for calibration curve. Calibration standards were prepared by spiking 100 μL of mouse plasma with a suitable working solution of 28 and IS to obtain a final concentration of 5 ng mL^–1 of the IS in each sample. For the extraction of 28 from mouse plasma, the method of protein precipitation was employed. Briefly, the frozen plasma samples were thawed at room temperature. 200 μL of ice-cold acetonitrile containing IS was added to 100 μL of plasma. The extraction was performed by vortex mixing for 5 min, followed by centrifugation for 10 min at 14,600 rpm at 25 °C. The supernatants were collected, filtered by […] RC-membranes, and then injected in UHPLC-MS/MS. […] The maximum concentration (Cmax) and time to reach Cmax (Tmax) were determined from the plasma concentration versus time data. The area under the plasma concentration–time curve from time 0 to infinity concentration (AUC0–∞) was determined using the linear trapezoidal method. The elimination half-life (T1/2) was calculated using ln(2)/ke.

[4] = 10 mg/kg i.p. 0.5 and 2.5 h after first cerulein injection, 6 h
[5] = 10 mg/kg i.p., 6 h after first cerulein injection

CC(C)c1ccc(Cn2ccc3cc(NC(=O)NCC45C[C@H]6C[C@@H](C4)C[C@@H](C5)C6)ccc32)cc1 [Compound 28, 1-(((3R,5R,7R)-Adamantan-1-yl)methyl)-3-(1-(4-isopropylbenzyl)-1H-indol-5-yl)urea]
lung inflammation and neutrophilia [1, 4]: reduced | pancreatic injury (edema, cell infiltration, neutrophil numbers) [1, 4]: protective effect | serum ALT levels [1, 5]: decreased | serum AST levels [1, 5]: decreased | IC50 [2]: > 10 µM | AUC(0-inf) at 24 h [3]: 29.9 ng·h/mL | Cmax at 24 h [3]: 4.17 ng/mL | Tmax at 24 h [3]: 2 h | half-life at 24 h [3]: 7.6 h
